Measured values taken from publication PMC8050276, “Estradiol analogs attenuate autophagy, cell migration and invasion by direct and selective inhibition of TRPML1, independent of estrogen receptors” (Scientific Reports, 2021).
Several values for one entry are separate records, joined by “and”; a condition that tells them apart may be missing. Identical values can stand only once. Like-named read-outs stand apart in the source and are kept apart here.

Experiments:
[1] = biological target: T1, hTRPML3-YFP (Homo sapiens, UniProt Q8TDD5); experiment: Fluo-4 Ca2+ influx assay, HEK293 stably expressing hTRPML3-YFP, activated with ML-SA1; assay type: cell-based; conditions: for IC50: Fluo-4, 5 µM ML-SA1, Table S1, read-out: TRPML3 IC50; for inhibitory effect on TRPML3: 12.5 µM compound, 5 µM ML-SA1, Fig. 1f
T1 construct: expressed in transfected cells
T1 sequence (Q8TDD5 whole entry): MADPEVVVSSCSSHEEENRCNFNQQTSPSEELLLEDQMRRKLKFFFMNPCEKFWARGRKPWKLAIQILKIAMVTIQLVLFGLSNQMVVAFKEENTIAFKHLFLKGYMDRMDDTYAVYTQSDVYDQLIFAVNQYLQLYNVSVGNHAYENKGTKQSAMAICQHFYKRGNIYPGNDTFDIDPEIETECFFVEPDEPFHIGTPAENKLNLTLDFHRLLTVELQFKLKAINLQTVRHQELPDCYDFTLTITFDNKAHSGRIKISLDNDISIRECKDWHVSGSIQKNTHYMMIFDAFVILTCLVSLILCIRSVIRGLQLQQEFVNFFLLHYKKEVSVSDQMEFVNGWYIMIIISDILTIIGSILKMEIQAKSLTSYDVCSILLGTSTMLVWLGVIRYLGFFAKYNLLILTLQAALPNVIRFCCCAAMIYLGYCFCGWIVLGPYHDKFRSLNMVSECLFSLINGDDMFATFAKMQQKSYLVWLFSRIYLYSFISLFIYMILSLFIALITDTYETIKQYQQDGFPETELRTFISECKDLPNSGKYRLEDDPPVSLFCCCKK
Experimental: (§1) To identify inhibitors of TRPML1 and TRPML3, the Spectrum Collection compound library (MS Discoveries; 2000 compounds) and additional 430 bioactive compounds were screened. To this end, fluorometric Ca^2+ influx assays were performed by using the calcium dye Fluo-4/AM (Invitrogen, Thermo Fisher Scientific, Waltham, MA, USA) and a custom-made fluorescence imaging plate reader built into a robotic liquid handling station (Freedom Evo 150, Tecan, Männedorf, Switzerland). All measurements were done in a HEPES buffered solution (HBS), containing 132 mM NaCl, 6 mM KCl, 1 mM MgCl2, 1 mM CaCl2, 5.5 mM D-glucose, 10 mM HEPES, pH 7.4. Screening compounds dissolved in DMSO (10 mM) were prediluted in 150 mM NaCl, 20 mM HEPES, pH 7.4, to a concentration of 200 µM. For primary screens, HEK293 stably expressing plasma membrane-targeted TRPML1 or TRPML3 were trypsinized and resuspended in cell culture medium supplemented with 4 µM Fluo-4/AM. After incubation at 37 °C for 30 min, the cell suspension was briefly centrifuged resuspended in HBS, and dispensed into black pigmented, clear-bottom 384-well microwell plates (Greiner μClear, Frickenhausen, Germany). Plates were placed into the FLIPR and fluorescence signals (excitation 470 nm, emission 515 nm) were recorded with a Zyla 5.5 camera (Andor, Belfast, UK) and the μManager software like previously described. In a first video, compound libraries were successively added to the cells with the Tecan 96-tip multichannel arm to a final concentration of 20 µM to map unspecific effects like autofluorescence or toxicity. In a second step the agonist ML-SA1 was pipetted in each well and fluorescence signals were recorded for 10 min. Analyses were done by calculating fluorescence intensities for each well and background areas with ImageJ (National Institutes of Health, Bethesda, MD, USA). Finally, the background was subtracted and the fluorescence intensities were normalized to initial intensities (F/F0). Concentration response curves were generated by the same procedure but compounds were manually prediluted in 96-well plates containing HBS, now supplemented with 0.1% bovine serum albumin. Here data was fitted to a four-parameter Hill equation to obtain Imin, Imax, IC50), and the Hill coefficient n.

[2] = test system: hTRPML1∆NC-YFP; assay type: cell-based, human; conditions: for TRPML1:TRPML2 fold selectivity / TRPML1:TRPML3 fold selectivity: ratio of Fluo-4 IC50 values; for TRPML1 versus TRPML3 selectivity: Fluo-4, TRPML1 vs TRPML3, 5 µM ML-SA1; for primary screen result: 20 µM compound, 5 µM ML-SA1, TRPML1 and TRPML3
Experimental: as §1, with “All measurements were done in a HEPES buffered solution (HBS), containing 132 mM NaCl, 6 mM KCl, 1 mM MgCl2, 1 mM CaCl2, 5.5 mM D-glucose, 10 mM HEPES, pH 7.4.” left out

[3] = biological target: hTRPML1∆NC-YFP (Homo sapiens, UniProt Q9GZU1); assay type: cell-based; conditions: for inhibitory effect on TRPML1: 12.5 µM compound, 5 µM ML-SA1, Fig. 1f; for TRPML1-inhibitory activity, SAR summary: random screening or consecutive experiments
hTRPML1∆NC-YFP (Homo sapiens, UniProt Q9GZU1), sequence (Q9GZU1 whole entry): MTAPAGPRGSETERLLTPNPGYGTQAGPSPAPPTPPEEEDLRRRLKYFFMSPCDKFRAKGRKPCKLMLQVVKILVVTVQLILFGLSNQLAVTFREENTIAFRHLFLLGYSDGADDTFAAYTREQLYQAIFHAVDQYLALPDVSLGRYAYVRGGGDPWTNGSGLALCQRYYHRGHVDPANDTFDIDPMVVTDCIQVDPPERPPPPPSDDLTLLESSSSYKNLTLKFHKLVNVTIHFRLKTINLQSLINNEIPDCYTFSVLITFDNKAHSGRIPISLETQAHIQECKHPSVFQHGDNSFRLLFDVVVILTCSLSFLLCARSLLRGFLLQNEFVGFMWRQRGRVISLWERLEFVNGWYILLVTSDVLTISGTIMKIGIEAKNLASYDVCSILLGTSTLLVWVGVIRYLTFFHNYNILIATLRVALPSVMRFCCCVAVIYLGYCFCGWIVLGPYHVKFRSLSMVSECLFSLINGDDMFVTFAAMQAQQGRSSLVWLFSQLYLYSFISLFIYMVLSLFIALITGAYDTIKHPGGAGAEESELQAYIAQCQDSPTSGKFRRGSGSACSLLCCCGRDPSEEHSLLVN
Experimental: as §1, with “All measurements were done in a HEPES buffered solution (HBS), containing 132 mM NaCl, 6 mM KCl, 1 mM MgCl2, 1 mM CaCl2, 5.5 mM D-glucose, 10 mM HEPES, pH 7.4.” left out

[4] = biological target: T2, hTRPML2-YFP (Homo sapiens, UniProt Q8IZK6); experiment: Fluo-4 Ca2+ influx assay, HEK293 stably expressing hTRPML2-YFP, activated with ML-SA1; assay type: cell-based; conditions: TRPML2 IC50, Fluo-4, 5 µM ML-SA1, Table S1
T2 construct: expressed in transfected cells
T2 sequence (Q8IZK6 1-566): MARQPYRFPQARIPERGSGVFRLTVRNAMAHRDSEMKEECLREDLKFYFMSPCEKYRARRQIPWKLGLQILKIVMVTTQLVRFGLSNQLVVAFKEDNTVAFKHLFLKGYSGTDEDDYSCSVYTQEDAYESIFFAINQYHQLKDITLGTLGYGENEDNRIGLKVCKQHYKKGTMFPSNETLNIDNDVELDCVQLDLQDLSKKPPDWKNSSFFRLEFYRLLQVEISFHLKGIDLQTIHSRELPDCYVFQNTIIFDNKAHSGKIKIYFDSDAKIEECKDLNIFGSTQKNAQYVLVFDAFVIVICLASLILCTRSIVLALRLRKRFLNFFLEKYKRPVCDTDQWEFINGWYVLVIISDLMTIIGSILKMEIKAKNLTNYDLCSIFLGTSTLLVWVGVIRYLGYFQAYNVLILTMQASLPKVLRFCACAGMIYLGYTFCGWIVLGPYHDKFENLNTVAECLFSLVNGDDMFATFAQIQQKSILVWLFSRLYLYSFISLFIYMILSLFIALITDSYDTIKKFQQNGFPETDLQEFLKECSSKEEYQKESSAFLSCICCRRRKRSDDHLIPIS

[5] = read-out: TRPML1 IC50, Fluo-4, 5 µM ML-SA1, Fig. 2a/4, Table S1
[6] = read-out: TRPML1 IC50, concentration-response retest of screening hits and steroids, Fluo-4, 5 µM ML-SA1, Fig. 1b-e, S1

C[C@]12CC[C@@H]3c4ccc(OC(F)F)cc4CC[C@H]3[C@@H]1CC[C@@H]2O [PRU-4] was tested, and the IC50 [1] was 4.78 µM, the “TRPML1:TRPML2 fold selectivity” value [2] was 10.25 fold and the “TRPML1:TRPML3 fold selectivity” value [2] was 9.37 fold. The IC50 [3, 5] was 0.5 µM and the IC50 [4] was 5.23 µM.

For C#C[C@]1(O)CC[C@H]2[C@@H]3CCc4cc(OC)ccc4[C@H]3CC[C@@]21C [mestranol, reference compound], the “TRPML1 versus TRPML3 selectivity” value [2] was “stronger inhibitory effects on TRPML1 than on TRPML3”, the “inhibitory effect on TRPML1” value [3] was “strongest effect” and the “TRPML1-inhibitory activity, SAR summary” value [3] was “considerable activity”.

In the case of COc1ccc2c(c1)CC[C@@H]1[C@@H]2CC[C@]2(C)C(=O)CC[C@@H]12 [estrone 3-methyl ether, reference compound], the “inhibitory effect on TRPML3” value [1] is reported as “no effect” and the “inhibitory effect on TRPML1” value [3] is reported as “no effect”.

In the case of CC(C)Oc1ccc2c(c1)CC[C@@H]1[C@@H]2CC[C@]2(C)[C@@H](O)CC[C@@H]12 [PRU-6], the IC50 [1] is reported as 7.87 µM, the “TRPML1:TRPML2 fold selectivity” value [2] is reported as 8.71 fold and the “TRPML1:TRPML3 fold selectivity” value [2] is reported as 19.2 fold. The IC50 [3, 5] was 0.41 µM and the IC50 [4] was 3.57 µM.

For C[C@]12CC[C@@H]3c4ccc(-c5ccccc5)cc4CC[C@H]3[C@@H]1CC[C@@H]2O [PRU-11], the IC50 [1] was 32.1 µM, the “TRPML1:TRPML2 fold selectivity” value [2] was 5.45 fold and the “TRPML1:TRPML3 fold selectivity” value [2] was 72.98 fold. It also gave an IC50 [3, 5] of 0.44 µM and an IC50 [4] of 2.4 µM.

In the case of C[C@]12CC[C@@H]3c4ccc(O)cc4CC[C@H]3[C@@H]1CCC2=O [estrone, reference compound], the “inhibitory effect on TRPML3” value [1] is reported as “no effect” and the “inhibitory effect on TRPML1” value [3] is reported as “no effect”.

C=CCOc1ccc2c(c1)CC[C@@H]1[C@@H]2CC[C@]2(C)[C@@H](O)CC[C@@H]12 [PRU-7] was tested, and the IC50 [1] was 15.2 µM, the “TRPML1:TRPML2 fold selectivity” value [2] was 3.62 fold and the “TRPML1:TRPML3 fold selectivity” value [2] was 20.82 fold. It also gave an IC50 [3, 5] of 0.73 µM and an IC50 [4] of 2.64 µM.

For CC(=O)[C@H]1CC[C@H]2[C@@H]3CCC4=CC(=O)CC[C@]4(C)[C@H]3CC[C@]12C [progesterone, reference compound], the “inhibitory effect on TRPML1” value [3] was “much weaker inhibitory effects” and the IC50 [3, 6] was 12 µM.

In the case of C[C@]12CCC(=O)C=C1CC[C@@H]1[C@@H]2[C@@H](O)C[C@@]2(C)[C@H]1CC[C@]2(O)C(=O)CO [hydrocortisone, reference compound], the “inhibitory effect on TRPML3” value [1] is reported as “no effect” and the “inhibitory effect on TRPML1” value [3] is reported as “no effect”.

For C=C1C[C@H]2[C@@H]3C=C(C)C4=CC(=O)CC[C@]4(C)[C@H]3CC[C@]2(C)[C@@]1(OC(C)=O)C(C)=O [MGA, melengestrol acetate, reference compound], the “primary screen result” value [2] was “TRPML1 selective hit”, the “TRPML1 versus TRPML3 selectivity” value [2] was “highly TRPML1-selective” and the IC50 [3, 6] was 19 µM and 18.6 µM.

With C#C[C@]1(O)CC[C@H]2[C@@H]3CCc4cc(O)ccc4[C@H]3CC[C@@]21C [ethinylestradiol, reference compound] the “TRPML1 versus TRPML3 selectivity” value [2] was “stronger inhibitory effects on TRPML1 than on TRPML3” and the “TRPML1-inhibitory activity, SAR summary” value [3] was “only weakly active”.

With CCOc1ccc2c(c1)CC[C@@H]1[C@@H]2CC[C@]2(C)[C@@H](O)CC[C@@H]12 [PRU-5] the IC50 [1] was 14.9 µM, the “TRPML1:TRPML2 fold selectivity” value [2] was 4.45 fold and the “TRPML1:TRPML3 fold selectivity” value [2] was 19.58 fold. For the same molecule, the IC50 [3, 5] was 0.8 µM and the IC50 [4] was 3.38 µM.

For C#CC1(O)CC[C@H]2[C@@H]3CCC4=CC(=O)CC[C@@H]4[C@H]3CC[C@@]21CC (mixture of isomers) [norgestrel, reference compound], the “inhibitory effect on TRPML3” value [1] was “no effect” and the “inhibitory effect on TRPML1” value [3] was “no effect”.

With C[C@]12CC[C@@H]3c4ccc(OS(=O)(=O)C(F)(F)F)cc4CC[C@H]3[C@@H]1CC[C@@H]2O [PRU-9] the IC50 [1] was 5.96 µM, the “TRPML isoform selectivity profile” value ([2]; TRPML1, 2, 3 and TPC2, Fluo-4) was “further improved selectivity profile compared to EDME” and the “TRPML1:TRPML2 fold selectivity” value [2] was 14.88 fold. The “TRPML1:TRPML3 fold selectivity” value [2] was 35.06 fold, the IC50 [3, 5] was 0.17 µM and the IC50 [4] was 2.53 µM.

For O=C(O)CCCCCCCCCCCC[C@@H]1C=CCC1 [chaulmoorgic acid, reference compound], the “primary screen result” value [2] was “TRPML1 selective hit”.

With C[C@]12CC[C@H]3[C@@H](CCC4=CC(=O)CC[C@@]43C)[C@@H]1CC[C@@H]2O [testosterone, reference compound] the “inhibitory effect on TRPML1” value [3] was “much weaker inhibitory effects”.

With C[C@]12CC[C@@H]3c4ccc(O)cc4C[C@@H](CCCCCCCCC[S+]([O-])CCCC(F)(F)C(F)(F)F)[C@H]3[C@@H]1CC[C@@H]2O (stereo partly drawn) [fulvestrant, reference compound] the “inhibitory effect on TRPML3” value [1] was “no effect” and the “inhibitory effect on TRPML1” value [3] was “no effect”.

For C[C@]12CCC3c4ccc(OS(=O)(=O)[O-])cc4CCC3C1CC[C@H]2O.[Na+] (stereo partly drawn) [estradiol-3-sulfate sodium salt, reference compound], the “TRPML1-inhibitory activity, SAR summary” value [3] was “eliminated TRPML1-inhibitory activity”.

CC(=O)O[C@@H]1C=C[C@]2(C)C(C[C@@H](OC(C)=O)[C@]3(C)C4=CC(=O)O[C@H](c5ccoc5)[C@@]4(C)CCC23)C1(C)C (stereo partly drawn) [DGA, deoxygedunol acetate, reference compound] was tested, and the “primary screen result” value [2] was “TRPML1 selective hit”.

With CC(C)CCC[C@@H](C)[C@H]1CC[C@H]2[C@@H]3CC=C4C[C@@H](O)CC[C@]4(C)[C@H]3CC[C@]12C [cholesterol, reference compound] the “inhibitory effect on TRPML3” value [1] was “no effect” and the “inhibitory effect on TRPML1” value [3] was “no effect”.
